Source: US10072017B2, “Compounds and methods for the treatment of cystic fibrosis” (Flatley Discovery Lab, LLC, priority 2015, dated 2018)

Target: T1, CFTR (Homo sapiens, UniProt P13569, DEL508-508)
T1 construct: Primary CF airway epithelial cells were obtained from the UNC Cystic Fibrosis Tissue Procurement and Cell Culture Core; host or cells: primary CF airway epithelial cells
Assay: Equivalent current assay in Primary CF airway epithelial cells (NAUC)
Format: cell-based
Conditions: 24 h, normalized to VX809 (3 μM) positive control; for Nauc @ 3 μM: 3 μM test compound; for Nauc @ 10 μM: 10 μM test compound
Method in brief: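 NAUC is the area under the curve from forskolin (10 μM) plus VX770 (1 μM) addition to CFTR-172 (20 μM) block, after benzamil (5 μM). It is corrected for vehicle and scaled to 3 μM VX809 as 1.0 and DMSO as 0.0. Cells were exposed for 24 h to compounds with VX809; medians of ≥4 replicates were fitted sigmoidally.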

T1 sequence (P13569 with tags, fused parts or gaps DEL508-508): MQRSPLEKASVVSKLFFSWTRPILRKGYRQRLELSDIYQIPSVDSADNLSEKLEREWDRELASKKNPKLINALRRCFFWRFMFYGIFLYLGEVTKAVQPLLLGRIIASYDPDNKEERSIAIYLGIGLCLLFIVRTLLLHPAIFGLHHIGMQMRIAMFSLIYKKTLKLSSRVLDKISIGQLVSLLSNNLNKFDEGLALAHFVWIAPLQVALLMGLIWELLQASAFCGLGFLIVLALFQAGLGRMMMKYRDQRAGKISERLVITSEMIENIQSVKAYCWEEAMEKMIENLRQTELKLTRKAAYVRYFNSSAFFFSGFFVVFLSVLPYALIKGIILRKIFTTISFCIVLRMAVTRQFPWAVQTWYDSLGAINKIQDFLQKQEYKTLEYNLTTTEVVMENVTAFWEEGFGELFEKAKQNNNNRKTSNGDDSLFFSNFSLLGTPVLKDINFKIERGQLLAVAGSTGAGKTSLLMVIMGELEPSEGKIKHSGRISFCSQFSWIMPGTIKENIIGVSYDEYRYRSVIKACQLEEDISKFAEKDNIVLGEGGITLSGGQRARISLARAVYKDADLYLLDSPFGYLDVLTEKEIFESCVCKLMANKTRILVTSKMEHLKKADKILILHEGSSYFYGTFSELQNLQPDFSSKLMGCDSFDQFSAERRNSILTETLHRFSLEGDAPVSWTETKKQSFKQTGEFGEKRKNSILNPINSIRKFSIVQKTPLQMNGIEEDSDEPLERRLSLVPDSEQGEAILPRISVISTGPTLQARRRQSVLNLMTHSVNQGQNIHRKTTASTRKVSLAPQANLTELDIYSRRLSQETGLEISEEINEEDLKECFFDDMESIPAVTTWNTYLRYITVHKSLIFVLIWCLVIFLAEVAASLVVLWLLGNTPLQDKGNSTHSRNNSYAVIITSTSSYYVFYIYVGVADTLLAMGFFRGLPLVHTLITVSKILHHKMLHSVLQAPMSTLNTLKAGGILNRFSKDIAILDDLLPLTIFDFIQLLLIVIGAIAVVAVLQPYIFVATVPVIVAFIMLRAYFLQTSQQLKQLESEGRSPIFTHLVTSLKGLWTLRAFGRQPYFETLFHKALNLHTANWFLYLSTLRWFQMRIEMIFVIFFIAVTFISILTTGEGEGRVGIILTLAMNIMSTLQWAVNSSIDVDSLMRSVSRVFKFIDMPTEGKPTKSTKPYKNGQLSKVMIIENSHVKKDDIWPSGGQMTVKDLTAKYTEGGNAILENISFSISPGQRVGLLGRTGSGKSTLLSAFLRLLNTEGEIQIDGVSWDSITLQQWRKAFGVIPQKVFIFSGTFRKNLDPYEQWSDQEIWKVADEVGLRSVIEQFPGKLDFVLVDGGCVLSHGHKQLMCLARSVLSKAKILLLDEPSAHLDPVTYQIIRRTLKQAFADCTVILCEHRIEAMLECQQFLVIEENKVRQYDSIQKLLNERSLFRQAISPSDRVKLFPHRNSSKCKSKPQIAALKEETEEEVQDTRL

| SMILES | Nauc @ 3 μM | Nauc @ 10 μM |
| --- | --- | --- |
| O=C1C2C(Cl)(C(=O)N1c1cc(Cl)cc(Cl)c1)C1CCCN1C21C(=O)Nc2c(Cl)cc(Cl)cc21 (stereo not shown) [Example 89] | + (NAUC “+” refers to an observed NAUC <140% of positive control) | ++ (NAUC “++” refers to an observed NAUC 170-140% of positive control) |
| C[C@]1(OCc2ccccc2)CC2C3C(=O)N(c4cc(Cl)cc(Cl)c4)C(=O)C3C3(C(=O)Nc4c(Cl)cc(Cl)cc43)N2C1 (single isomer, unassigned) [Example 239] | ++ (NAUC “++” refers to an observed NAUC 170-140% of positive control) | ++ (NAUC “++” refers to an observed NAUC 170-140% of positive control) |
| O=C1C2C3C[C@H](Cl)CN3C3(C(=O)Nc4c(Cl)cc(Cl)cc43)C2C(=O)N1c1cc(Cl)cc(Cl)c1 (single isomer, unassigned) [Example 86] | + (NAUC “+” refers to an observed NAUC <140% of positive control) | +++ (NAUC “+++” refers to an observed NAUC >170% of positive control) |
| CC1(C)CC2C3C(=O)N(c4cc(Cl)cc(Cl)c4)C(=O)C3C3(C(=O)Nc4c(Cl)cc(Cl)cc43)N2C1 (single isomer, unassigned) [Example 120] | +++ (NAUC “+++” refers to an observed NAUC >170% of positive control) | + (NAUC “+” refers to an observed NAUC <140% of positive control) |
| O=C1C2C(C3CCCCC3)NC3(C(=O)Nc4c(Cl)cc(Cl)cc43)C2C(=O)N1c1cc(Cl)cc(Cl)c1 (stereo not shown) [Example 208] | ++ (NAUC “++” refers to an observed NAUC 170-140% of positive control) | + (NAUC “+” refers to an observed NAUC <140% of positive control) |
| COc1ccc(CC2NC3(C(=O)Nc4c(Cl)cc(Cl)cc43)C3C(=O)N(c4cc(Cl)cc(Cl)c4)C(=O)C23)cc1 (stereo not shown) [Example 198] | + (NAUC “+” refers to an observed NAUC <140% of positive control) | ++ (NAUC “++” refers to an observed NAUC 170-140% of positive control) |
| O=C1C2C3CC(F)(F)CN3C3(C(=O)Nc4c(Cl)cc(Cl)cc43)C2C(=O)N1c1cc(Cl)cc(Cl)c1 (single isomer, unassigned) [Example 180] | ++ (NAUC “++” refers to an observed NAUC 170-140% of positive control) | + (NAUC “+” refers to an observed NAUC <140% of positive control) |
| COc1cc(Cl)cc(N2C(=O)C3C4CC(C)(C)CN4C4(C(=O)Nc5c(Cl)cc(Cl)cc54)C3C2=O)c1 (stereo not shown) [Example 127] | ++ (NAUC “++” refers to an observed NAUC 170-140% of positive control) | + (NAUC “+” refers to an observed NAUC <140% of positive control) |
| Cc1ccc2c(c1)C1(C(=O)N2)C2C(=O)N(c3cc(Cl)cc(Cl)c3)C(=O)C2C2CCCN21 (stereo not shown) [Example 47] | ++ (NAUC “++” refers to an observed NAUC 170-140% of positive control) | ++ (NAUC “++” refers to an observed NAUC 170-140% of positive control) |
| COc1cc(Cl)cc(N2C(=O)C3C4C[C@H](O)CN4C4(C(=O)Nc5c(Cl)cc(Cl)cc54)C3C2=O)c1 (single isomer, unassigned) [Example 115] | + (NAUC “+” refers to an observed NAUC <140% of positive control) | ++ (NAUC “++” refers to an observed NAUC 170-140% of positive control) |
| O=C1C2C3C[C@H](Cl)CN3C3(C(=O)Nc4c(Cl)cc(Cl)cc43)C2C(=O)N1c1cc(Cl)cc(Cl)c1 (single isomer, unassigned) [Example 87] | +++ (NAUC “+++” refers to an observed NAUC >170% of positive control) | +++ (NAUC “+++” refers to an observed NAUC >170% of positive control) |
| C[C@]1(O)CC2C3C(=O)N(c4ccon4)C(=O)C3C3(C(=O)Nc4c(Cl)cc(Cl)cc43)N2C1 (stereo partly shown) [Example 234] | + (NAUC “+” refers to an observed NAUC <140% of positive control) | ++ (NAUC “++” refers to an observed NAUC 170-140% of positive control) |
| C[C@]1(O)CC2C3C(=O)N(c4cc(Cl)cc(Cl)n4)C(=O)C3C3(C(=O)Nc4c(Cl)cc(Cl)cc43)N2C1 (stereo partly shown) [Example 223] | + (NAUC “+” refers to an observed NAUC <140% of positive control) | +++ (NAUC “+++” refers to an observed NAUC >170% of positive control) |
| O=C1C2C3CC(C(F)F)CN3C3(C(=O)Nc4c(Cl)cc(Cl)cc43)C2C(=O)N1c1cc(Cl)cc(Cl)c1 (stereo not shown) [Example 137] | +++ (NAUC “+++” refers to an observed NAUC >170% of positive control) | +++ (NAUC “+++” refers to an observed NAUC >170% of positive control) |
| O=C1C2C3CCCN3C3(C(=O)Nc4c(Cl)cc(Cl)cc43)C2C(=O)N1c1cc(Cl)c(OC(F)F)c(Cl)c1 (stereo not shown) [Example 224] | +++ (NAUC “+++” refers to an observed NAUC >170% of positive control) | +++ (NAUC “+++” refers to an observed NAUC >170% of positive control) |
| O=C1[C@H]2[C@H]3CCCN3[C@]3(C(=O)Nc4c(Cl)cc(Cl)cc43)[C@H]2C(=O)N1c1cc(Cl)cc(Cl)c1 (single isomer, unassigned) [Example 1] | +++ (NAUC “+++” refers to an observed NAUC >170% of positive control) | +++ (NAUC “+++” refers to an observed NAUC >170% of positive control) |
| COc1c(Cl)cc(N2C(=O)C3C4CC5(CC5)CN4C4(C(=O)Nc5c(Cl)cc(Cl)cc54)C3C2=O)cc1Cl (stereo not shown) [Example 177] | ++ (NAUC “++” refers to an observed NAUC 170-140% of positive control) | +++ (NAUC “+++” refers to an observed NAUC >170% of positive control) |
| CC12C(=O)N(c3cc(Cl)cc(Cl)c3)C(=O)C1C1(C(=O)Nc3c(Cl)cc(Cl)cc31)N1CCCC12 (single isomer, unassigned) [Example 54] | ++ (NAUC “++” refers to an observed NAUC 170-140% of positive control) | + (NAUC “+” refers to an observed NAUC <140% of positive control) |
| O=C1C2C3CCCN3C3(C(=O)Nc4c(Br)cc(Br)cc43)C2C(=O)N1c1cc(Cl)cc(Cl)c1 (stereo not shown) [Example 34] | +++ (NAUC “+++” refers to an observed NAUC >170% of positive control) | +++ (NAUC “+++” refers to an observed NAUC >170% of positive control) |
| N#Cc1cccc(N2C(=O)C3C4CCCN4C4(C(=O)Nc5c(Cl)cc(Cl)cc54)C3C2=O)c1 (stereo not shown) [Example 14] | + (NAUC “+” refers to an observed NAUC <140% of positive control) | ++ (NAUC “++” refers to an observed NAUC 170-140% of positive control) |
| COc1c(Cl)cc(N2C(=O)C3C4CC(OC)(OC)CN4C4(C(=O)Nc5c(Cl)cc(Cl)cc54)C3C2=O)cc1Cl (stereo not shown) [Example 168] | + (NAUC “+” refers to an observed NAUC <140% of positive control) | ++ (NAUC “++” refers to an observed NAUC 170-140% of positive control) |
| O=C1C2C(Cc3ccccc3Cl)NC3(C(=O)Nc4c(Cl)cc(Cl)cc43)C2C(=O)N1c1cc(Cl)cc(Cl)c1 (stereo not shown) [Example 190] | +++ (NAUC “+++” refers to an observed NAUC >170% of positive control) | +++ (NAUC “+++” refers to an observed NAUC >170% of positive control) |
| Cc1cccc(N2C(=O)C3C4CCCN4C4(C(=O)Nc5c(Cl)cc(Cl)cc54)C3C2=O)n1 (stereo not shown) [Example 183] | ++ (NAUC “++” refers to an observed NAUC 170-140% of positive control) | + (NAUC “+” refers to an observed NAUC <140% of positive control) |
| O=C1C2C3CCCN3C3(C(=O)Nc4c(Cl)cc(Cl)cc43)C2C(=O)N1c1nccs1 (stereo not shown) [Example 216] | ++ (NAUC “++” refers to an observed NAUC 170-140% of positive control) | + (NAUC “+” refers to an observed NAUC <140% of positive control) |
| O=C1C2CN(c3ccccc3)C3(C(=O)Nc4c(Cl)cc(Cl)cc43)C2C(=O)N1c1cc(Cl)cc(Cl)c1 (stereo not shown) [Example 209] | + (NAUC “+” refers to an observed NAUC <140% of positive control) | +++ (NAUC “+++” refers to an observed NAUC >170% of positive control) |
| COc1cc(Cl)cc(N2C(=O)C3C4CC(=C(F)F)CN4C4(C(=O)Nc5c(Cl)cc(Cl)cc54)C3C2=O)c1 (single isomer, unassigned) [Example 139] | ++ (NAUC “++” refers to an observed NAUC 170-140% of positive control) | + (NAUC “+” refers to an observed NAUC <140% of positive control) |
| O=C1C2C3C[C@H](O)CN3C3(C(=O)Nc4c(Br)cc(Br)cc43)C2C(=O)N1c1cc(Cl)cc(Cl)c1 (single isomer, unassigned) [Example 51] | +++ (NAUC “+++” refers to an observed NAUC >170% of positive control) | ++ (NAUC “++” refers to an observed NAUC 170-140% of positive control) |
| CC1(C)CC2C3C(=O)N(c4cc(Cl)cc(Cl)n4)C(=O)C3C3(C(=O)Nc4c(Cl)cc(Cl)cc43)N2C1 (stereo not shown) [Example 176] | ++ (NAUC “++” refers to an observed NAUC 170-140% of positive control) | ++ (NAUC “++” refers to an observed NAUC 170-140% of positive control) |
| N[C@@H]1CC2C3C(=O)N(c4cc(Cl)cc(Cl)c4)C(=O)C3C3(C(=O)Nc4c(Cl)cc(Cl)cc43)N2C1 (stereo partly shown) [Example 60] | + (NAUC “+” refers to an observed NAUC <140% of positive control) | ++ (NAUC “++” refers to an observed NAUC 170-140% of positive control) |
